According to ChEMBL document CHEMBL1144957, “Highly cytotoxic benzo[c]pyrido[2,3,4-kl]acridines” (Bioorg Med Chem Lett, 2003):

Tests used:
Calf thymus DNA [1] = assay: Apparent calf thymus DNA-binding constant; type: nucleic-acid assay; settings: Bos taurus
Nucleic Acid = assay: Binding to DNA as change in thermal denaturation temperature of poly(dAT)2 DNA; type: nucleic-acid assay
PC-3 = assay: In vitro inhibitory concentration against human prostate carcinoma PC-3 cell line using MTT assay after incubation for 72 h; type: functional, cell-based; settings: PC-3, 72 h
Calf thymus DNA [2] = assay: Apparent Calf thymus DNA DNA-binding constant; type: nucleic-acid assay; settings: Bos taurus

Row | K app (Calf thymus DNA [1]) | ΔTm (Nucleic Acid) | IC50 (PC-3) | K app (Calf thymus DNA [2]) | Structure (SMILES)
1 | 2400 M⁻¹ | 0 °C | > 1000 nM | – | COc1ccc2c(c1)-c1nc3cc(OC)c(OC)c4c3c(c1CC2)CCN4
2 | 3.04e+06 M⁻¹ | 0.9 °C | > 1000 nM | – | COc1cc2nc3c(c4c2c(c1OC)N(C(=O)CN1CCN(C)CC1)CC4)CCc1cc(OCCCN2CCN(C)CC2)ccc1-3
3 | 2.01e+06 M⁻¹ | 12.1 °C | > 1000 nM | – | COc1cc2nc3c(c4c2c(c1OC)NCC4)CCc1cc(OCCN)ccc1-3
4 | 6.86e+06 M⁻¹ | 11.9 °C | > 1000 nM | – | COc1cc2nc3c(c4c2c(c1OC)NCC4)CCc1cc(OCCCN)ccc1-3
5 | 6300 M⁻¹ | 3.1 °C | > 1000 nM | – | COc1cc2nc3c(c4c2c(c1OC)N(C(C)=O)CC4)CCc1cc(OCCCN)ccc1-3
6 | 3600 M⁻¹ | 0 °C | > 1000 nM | – | COc1cc2nc3c(c4c2c(c1OC)NCC4)CCc1ccccc1-3
7 | 3000 M⁻¹ | 0 °C | > 1000 nM | – | COc1ccc2c(c1)CCc1c-2nc2cc(OC)c(OC)c3c2c1CCN3
8 | 4.51e+06 M⁻¹ | 11.9 °C | > 1000 nM | – | COc1cc2nc3c(c4c2c(c1OC)N(C(=O)CN1CCN(C)CC1)CC4)CCc1cc(OCCN)ccc1-3
9 | < 50000 M⁻¹ | 0 °C | > 1000 nM | – | COc1cc2nc3c(c4c2c(c1OC)N(C(=O)CN1CCN(C)CC1)CC4)CCc1ccccc1-3
10 | – | – | > 1000 nM | – | COc1ccc2c(c1)-c1nc3cc(OC)c(OC)c4c3c(c1CC2)CCN4C(C)=O
11 | 4.98e+06 M⁻¹ | 7.5 °C | 19.9 nM | – | COc1cc2nc3c(c4c2c(c1OC)NCC4)CCc1cc(OCCCN2CCN(C)CC2)ccc1-3
12 | – | – | > 1000 nM | – | COc1cc2nc3c(c4c2c(c1OC)N(C(C)=O)CC4)CCc1ccccc1-3
13 | – | – | > 1000 nM | – | COc1ccc2c(c1)CCc1c-2nc2cc(OC)c(OC)c3c2c1CCN3C(C)=O
14 | 4200 M⁻¹ | 2.1 °C | > 1000 nM | – | COc1cc2nc3c(c4c2c(c1OC)N(C(C)=O)CC4)CCc1cc(OCCN)ccc1-3
15 | < 50000 M⁻¹ | 0.9 °C | > 1000 nM | – | COc1ccc2c(c1)-c1nc3cc(OC)c(OC)c4c3c(c1CC2)CCN4C(=O)CN1CCN(C)CC1
16 | < 50000 M⁻¹ | 0.9 °C | > 1000 nM | – | COc1ccc2c(c1)CCc1c-2nc2cc(OC)c(OC)c3c2c1CCN3C(=O)CN1CCN(C)CC1
17 | – | 0.9 °C | 11.2 nM | 2800 M⁻¹ | COc1cc2nc3c(c4c2c(c1OC)N(C(C)=O)CC4)CCc1cc(OCCCN2CCN(C)CC2)ccc1-3
18 | – | – | > 1000 nM | – | COc1cc2nc3c(c4c2c(c1OC)N(C(C)=O)CC4)CCc1cc(O)ccc1-3
19 | 6.66e+06 M⁻¹ | 11.9 °C | 5.1 nM | – | COc1cc2nc3c(c4c2c(c1OC)N(C(=O)CN1CCN(C)CC1)CC4)CCc1cc(OCCCN)ccc1-3
20 | 1600 M⁻¹ | 1.1 °C | > 1000 nM | – | COc1cc2nc3c(c4c2c(c1OC)NCC4)CCc1cc(O)ccc1-3
